The values that follow come from patent US9932621B2, “Modulators for Sirt5 and assays for screening same” (CORNELL UNIVERSITY, priority 2010, dated 2018).

In general, IC50 refers to the concentration at which inhibition is half-maximal.

The target of assay [1] is T1, Sirt5 (Homo sapiens, UniProt Q9NXA8).
T1 construct: made in house
T1 sequence (Q9NXA8 37-310): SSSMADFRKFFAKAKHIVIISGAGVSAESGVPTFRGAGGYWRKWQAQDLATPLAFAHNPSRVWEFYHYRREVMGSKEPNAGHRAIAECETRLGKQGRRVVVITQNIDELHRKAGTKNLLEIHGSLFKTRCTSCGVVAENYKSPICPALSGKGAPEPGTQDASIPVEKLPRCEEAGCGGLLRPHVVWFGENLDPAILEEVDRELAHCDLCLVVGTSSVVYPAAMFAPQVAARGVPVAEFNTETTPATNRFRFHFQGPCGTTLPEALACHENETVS
The assay can be described thus: Sirt5 inhibition IC50 (desuccinylase, HPLC-based assay). The class given is biochemical. Conditions: Sirt5 1 μM, 0.3 mM acyl peptide, 0.5 mM NAD; * = no inhibition at 100 μM. Here is the method: All assays were carried out under identical enzyme (1 μM) and substrate (0.3 mM acyl peptide, 0.5 mM NAD) concentrations.

Assay [2] concerns the target T2, Sirt1 (Homo sapiens, UniProt Q96EB6).
T2 sequence (Q96EB6 1-747): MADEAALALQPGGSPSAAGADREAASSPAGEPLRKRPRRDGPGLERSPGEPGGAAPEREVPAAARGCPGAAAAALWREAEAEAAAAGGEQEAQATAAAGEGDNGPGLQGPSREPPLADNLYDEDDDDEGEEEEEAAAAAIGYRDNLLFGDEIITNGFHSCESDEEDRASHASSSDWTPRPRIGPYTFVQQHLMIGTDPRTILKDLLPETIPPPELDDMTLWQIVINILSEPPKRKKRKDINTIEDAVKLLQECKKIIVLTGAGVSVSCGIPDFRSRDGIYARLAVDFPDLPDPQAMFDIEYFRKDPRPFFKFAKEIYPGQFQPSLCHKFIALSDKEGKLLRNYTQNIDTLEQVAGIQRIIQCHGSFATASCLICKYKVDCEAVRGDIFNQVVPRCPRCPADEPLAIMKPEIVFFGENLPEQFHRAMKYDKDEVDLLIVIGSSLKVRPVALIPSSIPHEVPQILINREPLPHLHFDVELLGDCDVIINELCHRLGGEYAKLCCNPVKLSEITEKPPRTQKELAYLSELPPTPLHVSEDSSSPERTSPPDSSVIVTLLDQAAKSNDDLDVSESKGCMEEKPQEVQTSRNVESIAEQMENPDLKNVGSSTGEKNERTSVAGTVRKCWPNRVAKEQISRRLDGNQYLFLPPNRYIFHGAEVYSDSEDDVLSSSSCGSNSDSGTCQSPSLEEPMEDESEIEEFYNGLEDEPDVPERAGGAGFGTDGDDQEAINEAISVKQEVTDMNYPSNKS
The settings on record: Sirt1, literature value; read-out: IC50, reported value in parentheses; cited from earlier work.

For `N#C/C(=C\c1ccc(-c2cc(Cl)ccc2Cl)o1)C(=O)Nc1cccc2ncccc12` [AGK2], the IC50 in assay [1] was 120 µM; in assay [2], greater than 40 µM.
